Test results published in the NIST ThermoML archive (doi:10.1016/j.jct.2019.105878).

Test: osmotic coefficient (dimensionless); mn = molality of the nth substance listed, in mol/kg
Settings: 298.15 K, 97.5 kPa, Liquid, vapour pressure osmometry

O=Cc1ccc(CO)o1 [5-(hydroxymethyl)furan-2-carbaldehyde] + O
Settings | osmotic coefficient
m1 = 0.496 | 0.85
m1 = 0.991 | 0.73
m1 = 1.483 | 0.635
m1 = 1.98 | 0.572
m1 = 2.473 | 0.521
m1 = 2.967 | 0.462
m1 = 3.459 | 0.442
m1 = 3.95 | 0.396
m1 = 4.444 | 0.378
m1 = 4.935 | 0.37
